Results on 13 compounds are retold here after ChEMBL document CHEMBL4138272, “Neuroprotective Dihydroagarofuran Sesquiterpene Derivatives from the Leaves of Tripterygium wilfordii” (2018).

Activity calls are given as the source filed them. No cut-off for these calls is given here.

The first test deals with PC-12. The experiment in a line: Neuroprotective activity against okadaic acid-induced cell injury in rat PC12 cells assessed as cell viability at 10 uM after 48 hrs by MTT assay (reference value: 60.4 +/- 23%). The test is classed as functional.
Details: not given
On to `CC(=O)OC[C@@]12[C@@H](OC(=O)/C=C/c3ccccc3)CC[C@](C)(O)[C@]13OC(C)(C)[C@H](C(=O)[C@H]2OC(=O)c1ccoc1)[C@H]3O`, for which the result was inactive.
On the same count and under the same terms, with `CC(=O)O[C@@H]1[C@H]2[C@@H](O)[C@@H](OC(=O)c3ccoc3)[C@]3(CO)[C@@H](OC(=O)/C=C/c4ccccc4)CC[C@](C)(O)[C@@]13OC2(C)C` the entry was “inactive”; with `CC(=O)OC[C@@]12[C@@H](OC(=O)/C=C/c3ccccc3)CC[C@](C)(O)[C@]13OC(C)(C)[C@H]([C@@H](OC(C)=O)[C@H]2OC(=O)c1ccoc1)[C@H]3O`, “inactive”; with `CC(=O)OC[C@@]12[C@@H](OC(=O)c3ccoc3)CC[C@@H](C)[C@]13OC(C)(C)[C@H]([C@@H](OC(C)=O)[C@H]2OC(=O)c1cccnc1)[C@H]3OC(=O)c1ccoc1`, “inactive”.
As for `CC(=O)OC[C@@]12[C@@H](OC(=O)/C=C/c3ccccc3)CC[C@](C)(O)[C@]13OC(C)(C)[C@H]([C@@H](O)[C@H]2O)[C@H]3OC(C)=O`, the outcome was inactive.
With `CC(=O)OC[C@@]12[C@@H](OC(=O)/C=C/c3ccccc3)CC[C@](C)(O)[C@]13OC(C)(C)[C@H]([C@@H](O)[C@H]2OC(=O)c1ccoc1)[C@H]3OC(C)=O`, the result was inactive.
Turning to `CC(=O)OC[C@@]12[C@@H](OC(=O)/C=C\c3ccccc3)CC[C@](C)(O)[C@]13OC(C)(C)[C@H](C(=O)[C@H]2OC(=O)c1ccoc1)[C@H]3O`, the result was inactive.
As for `CC(=O)OC[C@@]12[C@@H](OC(=O)/C=C\c3ccccc3)CC[C@](C)(O)[C@]13OC(C)(C)[C@H]([C@@H](OC(C)=O)[C@H]2OC(=O)c1ccoc1)[C@H]3O`, the outcome was inactive.

The test is the same for the next values; noted with them: PC-12, 48 h, read-out: Activity.
As to `CC(=O)OC[C@@]12[C@@H](OC(=O)c3ccoc3)CC[C@@H](C)[C@]13OC(C)(C)[C@H]([C@@H](OC(C)=O)[C@H]2OC(=O)c1cccnc1)[C@H]3OC(C)=O`, the viability at 10 µM is 72.4%.
On the same count and under the same terms, with `CC(=O)OC[C@@]12[C@@H](OC(=O)/C=C/c3ccccc3)CC[C@@H](C)[C@]13OC(C)(C)[C@H]([C@@H](OC(C)=O)[C@H]2OC(=O)c1cccnc1)[C@H]3OC(C)=O` the figure was 81.2%.
For the compound `CC(=O)OC[C@@]12[C@@H](OC(=O)/C=C\c3ccccc3)CC[C@@H](C)[C@]13OC(C)(C)[C@H]([C@@H](OC(C)=O)[C@H]2OC(=O)c1cccnc1)[C@H]3OC(C)=O`, the viability at 10 µM came out at 75.7%.
Turning to `CC(=O)OC[C@]12[C@H](OC(C)=O)[C@H](OC(C)=O)[C@@H]3[C@@H](OC(=O)c4ccccc4)[C@@]14OC3(C)COC(=O)c1cccnc1C(C)C(C)C(=O)O[C@@H]([C@H](O)[C@@H]2OC(=O)c1ccccc1)[C@]4(C)O` (stereo partly drawn), the viability at 10 µM stood at 86.2%.
Turning to `CC(=O)OC[C@@]12[C@@H](OC(C)=O)CC[C@@H](C)[C@]13OC(C)(C)[C@H]([C@@H](OC(C)=O)[C@H]2OC(=O)c1cccnc1)[C@H]3OC(=O)c1ccoc1`, the viability at 10 µM was 71.5%.
